# Measurements: patent US6930092B1, “Antibiotic agents” (priority 1999, dated 2005)
# Like-named read-outs stand apart in the source and are kept apart here.
# What was measured:
# [1] = Degradation of 5-deB in Britton-Robinson buffer followed by 1D 1H NMR; type: physicochemical; conditions: apparent pH 2.5, 55° C., 5 hr
# From the text: The deuteriation effects at C8 as in erythromycin B were observed but there was no change elsewhere.
# [2] = cited from earlier work
# [3] = type: physicochemical
# Experimental: The suspected intermediate, eBee was prepared and then was added into a partially degraded erythromycin B, the mixture of partially degraded erythromycin B, and the pure eBee solution were compared. […] However, the involvement of eBee as the intermediate in the degradation of erythromycin B was clearly observed in the degradation experiment of eBee.
# At present, there is no mechanism of degradation of erythromycin B which has been proposed. An experiment was designed to distinguish whether eBee is degraded to 5-deB via erythromycin B or not. Britton-Robinson buffers, 40 mM of pH2 and 7 were prepared and aliquoted into eppendorf tubes. Just before the experiment started, erythromycin B was dissolved in 20 ul of dimethyl-d6 sulfoxide (99.9 atom % D, Sigma, St Louis, USA) and then was transferred immediately into the buffer and 1D^1H NMR spectra were recorded at 37° C. The typical spectra at 0, 10 and 20 min are depicted in FIGS. 19, 20 and 21, respectively.
# After 10 min, the amount of eBee was reduced to almost 40%, but 5-deB was still undetectable. After 20 min, 5-deB appeared in the spectrum, characterised by its H13 at δ5.38, whilst eBee became insignificant in the spectrum.
# A similar experiment was repeated by using buffer at pH 7, and 1D^1H spectra were recorded at 37° C. The spectrum of eBee after 0 and 60 min of incubation are depicted in FIGS. 22 and 23, respectively. […] There was trace of erythromycin B but no eBee was detected in the spectra.
compound,measurement,setting,value
5-desosaminyl erythronolide B [5-deB],further degradation,[1],does not degrade further
CC[C@H]1OC(=O)[C@H](C)[C@@H](O[C@H]2C[C@@](C)(OC)[C@@H](O)[C@H](C)O2)[C@H](C)[C@@H](O[C@@H]2O[C@H](C)C[C@H](N(C)C)[C@H]2O)[C@](C)(O)C[C@@H](C)C(=O)[C@H](C)[C@@H](O)[C@]1(C)O [erythromycin A],time in which degraded to completeness,"[2]; 50 mM acetate buffer pH 4.6, 60° C.",≤ 3 h
same,time in which decomposed almost completely,"[2]; 50 mM formate buffer pH 4, 37° C.",≤ 4 h
same,degradation,"[2]; pH 3.5, 35° C.",degraded substantially even before the first spectrum was recorded
"CC[C@H]1OC(=O)[C@H](C)[C@@H](O[C@H]2C[C@@](C)(OC)[C@@H](O)[C@H](C)O2)[C@H](C)[C@@H](O[C@@H]2O[C@H](C)C[C@H](N(C)C)[C@H]2O)[C@](C)(O)C[C@@H](C)C(=O)[C@H](C)[C@@H](O)[C@H]1C [erythromycin B, Erythromycin B]",time in which decomposition was completed,"pH 2.5, depending on the temperature used",6 to 12 h
same,degradation,pH 4.6,degradation occurred very slowly
"CC[C@H]1OC(=O)[C@H](C)[C@@H](O[C@H]2C[C@@](C)(OC)[C@@H](O)[C@H](C)O2)[C@H](C)[C@@H](O[C@@H]2O[C@H](C)C[C@H](N(C)C)[C@H]2O)C2(C)CC(C)=C(O2)[C@H](C)[C@@H](O)[C@H]1C (stereo partly shown) [eBee, erythromycin B enol ether]",amount of eBee in the spectrum,"[3]; Britton-Robinson buffer pH 2, 37° C., after 20 min",insignificant
same,amount of eBee remaining,"[3]; buffer, 10 min, pH 2",~40%
same,degradation,[3]; pH 2.5,rapidly degraded to erythromycin B
same,degradation,[3]; pH 7,not degraded at least for 80 min
